# “And” between values parts separate entries of the source, which are not always exact repeats. Equal entries are not always repeated. Where two headings read alike, the source gives them in different places.
# How the values were obtained:
# NMDA receptor [1] = biological target: NMDA receptor; set-up: species or system rat; conditions: read-out: EC50 of Gly, [3H]MK-801 binding
# NMDA receptor [2] = type: binding, rat
# NMDA receptor [3] = biological target: T1, NMDA receptor (Rattus norvegicus, UniProt P35439+Q00960); assay: biochemical; type: binding
# T1 construct: other: test compound in the absence of spermine; concentration at 50% of maximum stimulation; % Sti; spermine = 100; other: with and without spermine; absence of spermine; % STI; absence
# T1 sequence (Q00960 27-1482, other chains not shown): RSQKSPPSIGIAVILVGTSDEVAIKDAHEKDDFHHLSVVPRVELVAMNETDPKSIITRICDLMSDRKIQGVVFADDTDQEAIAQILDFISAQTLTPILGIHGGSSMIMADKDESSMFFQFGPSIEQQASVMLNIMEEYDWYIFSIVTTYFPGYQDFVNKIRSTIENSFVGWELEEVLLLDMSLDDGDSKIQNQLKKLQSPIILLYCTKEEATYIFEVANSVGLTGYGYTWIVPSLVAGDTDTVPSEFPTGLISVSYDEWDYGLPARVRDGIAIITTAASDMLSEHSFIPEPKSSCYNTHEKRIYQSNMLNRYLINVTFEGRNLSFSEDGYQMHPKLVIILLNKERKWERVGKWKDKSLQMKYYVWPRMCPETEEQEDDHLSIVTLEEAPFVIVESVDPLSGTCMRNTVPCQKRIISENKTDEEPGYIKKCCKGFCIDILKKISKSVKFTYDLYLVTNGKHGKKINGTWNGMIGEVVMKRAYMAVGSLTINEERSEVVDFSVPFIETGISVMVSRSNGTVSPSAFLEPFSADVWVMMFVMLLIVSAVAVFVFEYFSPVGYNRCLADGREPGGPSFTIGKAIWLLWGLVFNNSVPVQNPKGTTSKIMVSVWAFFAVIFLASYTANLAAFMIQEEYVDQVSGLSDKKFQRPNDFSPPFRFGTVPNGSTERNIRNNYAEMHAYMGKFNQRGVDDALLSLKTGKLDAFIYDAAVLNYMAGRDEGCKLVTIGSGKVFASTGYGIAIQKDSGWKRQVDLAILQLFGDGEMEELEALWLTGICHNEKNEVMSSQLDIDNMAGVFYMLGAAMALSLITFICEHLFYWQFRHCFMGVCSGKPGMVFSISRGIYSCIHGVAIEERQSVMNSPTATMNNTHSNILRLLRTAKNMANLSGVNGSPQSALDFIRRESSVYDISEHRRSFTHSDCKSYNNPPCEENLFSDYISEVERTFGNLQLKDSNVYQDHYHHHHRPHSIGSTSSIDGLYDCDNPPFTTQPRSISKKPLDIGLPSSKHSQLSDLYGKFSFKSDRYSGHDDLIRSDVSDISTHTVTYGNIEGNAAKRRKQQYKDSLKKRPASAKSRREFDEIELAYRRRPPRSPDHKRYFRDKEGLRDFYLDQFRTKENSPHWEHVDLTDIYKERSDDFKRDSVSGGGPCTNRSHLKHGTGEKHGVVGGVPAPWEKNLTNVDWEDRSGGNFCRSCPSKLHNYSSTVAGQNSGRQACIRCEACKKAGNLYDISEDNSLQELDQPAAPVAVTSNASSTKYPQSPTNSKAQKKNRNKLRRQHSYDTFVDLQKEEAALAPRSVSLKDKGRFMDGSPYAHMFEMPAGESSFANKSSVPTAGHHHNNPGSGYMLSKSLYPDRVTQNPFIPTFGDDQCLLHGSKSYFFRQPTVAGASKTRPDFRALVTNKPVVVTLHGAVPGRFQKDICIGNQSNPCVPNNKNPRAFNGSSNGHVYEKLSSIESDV
Compound,% Inh (NMDA receptor [2]) [%],Emax (NMDA receptor [3]; read-out: % Sti) [%],% Sti (NMDA receptor [3]) [%],other results
"NCC(=O)O [Gly, glycine]",,,,EC50 (NMDA receptor [1]): 56 nM and 58 nM
"CC[C@H](C)[C@H](NC(=O)[C@H](CC(C)C)NC(=O)[C@H](CCC(=O)O)NC(=O)[C@H](CCC(N)=O)NC(=O)[C@H](CC(N)=O)NC(=O)[C@H](CCC(=O)O)NC(=O)[C@H](CCC(N)=O)NC(=O)[C@H](CC(C)C)NC(=O)[C@H](CCC(=O)O)NC(=O)[C@H](CCC(=O)O)NC(=O)[C@H](CCC(=O)O)NC(=O)CNC(=O)[C@@H](N)Cc1ccc(O)cc1)C(=O)N[C@@H](CCCNC(=N)N)C(=O)N[C@@H](CCC(=O)O)C(=O)N[C@@H](CCCCN)C(=O)N[C@@H](CO)C(=O)N[C@@H](CC(N)=O)C(N)=O [Tyr^o-Glu3,4,7,10,14-Con-G]",0,31,,inhibition of spermine-induced [3H]MK-801 binding (NMDA receptor [2]): no inhibition; stimulation of [3H]MK-801 binding in the absence of spermine (NMDA receptor [3]): stimulated
"NCCCCNCCCN [Spermidine, reference compound]",0,97,,
"CC[C@H](C)[C@H](NC(=O)[C@H](CC(C)C)NC(=O)[C@H](CCC(=O)O)NC(=O)[C@H](CCC(N)=O)NC(=O)[C@H](CC(N)=O)NC(=O)[C@H](CCC(=O)O)NC(=O)[C@H](CCC(N)=O)NC(=O)[C@H](CC(C)C)NC(=O)[C@H](CCC(=O)O)NC(=O)[C@H](CCC(=O)O)NC(=O)[C@H](CCC(=O)O)NC(=O)CN)C(=O)N[C@@H](CCCNC(=N)N)C(=O)N[C@@H](CCC(=O)O)C(=O)N[C@@H](CCCCN)C(=O)N[C@@H](CO)C(=O)N[C@@H](CC(N)=O)C(N)=O [Glu3,4,7,10,14-Con-G]",22,79,,% INH (NMDA receptor [2]): 22%; IC50 (NMDA receptor [2]; read-out: IC50): 8500 nM; IC50 (NMDA receptor [2]; read-out: Spermine IC): 8500 nM; Emax (NMDA receptor [3]; read-out: % STI): 79%
GEgALQgNQgLJRgKSN (GEXALQXNQXLIRXKSN; gamma-carboxyglutamate residues) [Ala4-Con-G],0,,0,
"CC[C@H](C)[C@H](NC(=O)[C@H](CC(C)C)NC(=O)[C@H](CC(C(=O)O)C(=O)O)NC(=O)[C@H](CCC(N)=O)NC(=O)[C@H](CC(N)=O)NC(=O)[C@H](CC(C(=O)O)C(=O)O)NC(=O)[C@H](CCC(N)=O)NC(=O)[C@H](CC(C)C)NC(=O)[C@H](CC(C(=O)O)C(=O)O)NC(=O)[C@H](COP(=O)(O)O)NC(=O)[C@H](CCC(=O)O)NC(=O)CN)C(=O)N[C@@H](CCCNC(=N)N)C(=O)N[C@@H](CC(C(=O)O)C(=O)O)C(=O)N[C@@H](CCCCN)C(=O)N[C@@H](CO)C(=O)N[C@@H](CC(N)=O)C(N)=O [Ser(p)3-Con-G, GES(p)gLQgNQgLJRgKSN]",34 ± 2.3,,,% INH (NMDA receptor [2]): 34 ± 2.3%; % STI (NMDA receptor [3]; forebrain membranes): 68 ± 8.4%; % Sti (NMDA receptor [3]; forebrain membranes): 68 ± 8.4%
"CC[C@H](C)[C@H](NC(=O)[C@H](CC(C)C)NC(=O)[C@H](CO)NC(=O)[C@H](CCC(N)=O)NC(=O)[C@H](CC(N)=O)NC(=O)[C@H](CC(C(=O)O)C(=O)O)NC(=O)[C@H](CCC(N)=O)NC(=O)[C@H](CC(C)C)NC(=O)[C@H](CC(C(=O)O)C(=O)O)NC(=O)[C@H](CC(C(=O)O)C(=O)O)NC(=O)[C@H](CCC(=O)O)NC(=O)CN)C(=O)N[C@@H](CCCNC(=N)N)C(=O)N[C@@H](CC(C(=O)O)C(=O)O)C(=O)N[C@@H](CCCCN)C(=O)N[C@@H](CO)C(=O)N[C@@H](CC(N)=O)C(N)=O [Ser10-Con-G, GEggLQgNQSLIRgKSN]",100,0,,IC50 (NMDA receptor [2]; read-out: Spermine IC): 1800 ± 200 nM
"CC[C@H](C)[C@H](NC(=O)[C@H](CC(C)C)NC(=O)[C@H](CC(C(=O)O)C(=O)O)NC(=O)[C@H](CCC(N)=O)NC(=O)[C@H](CC(N)=O)NC(=O)[C@H](COP(=O)(O)O)NC(=O)[C@H](CCC(N)=O)NC(=O)[C@H](CC(C)C)NC(=O)[C@H](CC(C(=O)O)C(=O)O)NC(=O)[C@H](CC(C(=O)O)C(=O)O)NC(=O)[C@H](CCC(=O)O)NC(=O)CN)C(=O)N[C@@H](CCCNC(=N)N)C(=O)N[C@@H](CC(C(=O)O)C(=O)O)C(=O)N[C@@H](CCCCN)C(=O)N[C@@H](CO)C(=O)N[C@@H](CC(N)=O)C(N)=O [Ser(p)7-Con-G, GEggLQS(p)NQgLIRgKSN]",50±3.8,,,"inhibition of [3H]MK-801 binding produced by maximally effective spermine (NMDA receptor [2]): 50%; IC50 (NMDA receptor [2]; read-out: IC50, inhibition of spermine-enhanced [3H]MK-801 binding): 1040 ± 300 nM; % Sti (NMDA receptor [3]; forebrain membranes): 0%"
Ac-GEggLQgNQgLIRgKSN [Ac-Con-G],0,,0,"activity, inhibitory or stimulatory (NMDA receptor [3]): no apparent activity"
GEgELQgNQgLJRgKSN (GEXELQXNQXLIRXKSN; gamma-carboxyglutamate residues) [Glu4-Con-G],0,,0,

# Reference: patent US6511963B1 (priority 1992, dated 2003)
